Assay results published in US11299478B2, “2-cyanopyrimidin-4-yl carbamate or urea derivative or salt thereof, and pharmaceutical composition including same” (HANLIM PHARMACEUTICAL CO., LTD., priority 2018, dated 2022).

How the values were obtained:
Format in all cases: biochemical
[1] = target: T1, cathepsin K (Homo sapiens, UniProt P43235); test: Inhibitory activity assay against cathepsin K (enzyme assay); conditions: Z-Phe-Arg-AMC 10 μM, enzyme 1 nM, pH 5.5, 30 minutes
T1 sequence (P43235 115-329): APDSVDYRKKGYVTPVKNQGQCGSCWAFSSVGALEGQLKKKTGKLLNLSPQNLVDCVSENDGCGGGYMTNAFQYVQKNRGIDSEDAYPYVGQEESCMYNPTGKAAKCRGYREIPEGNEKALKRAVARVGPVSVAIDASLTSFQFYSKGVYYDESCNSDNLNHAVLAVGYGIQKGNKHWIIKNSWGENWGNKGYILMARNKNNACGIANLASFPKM
How it was run: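 IC50 by 4-parameter logistic fit of fluorescence (ex 355 nm, em 460 nm) after 30 min reaction. Compound tested at 10 final concentrations from 10.0 μM down to 0.000508 μM against 1 nM enzyme and 10 μM Z-Phe-Arg-AMC, in MES buffer pH 5.5 with DTT, EDTA, Triton X-100 and 10% DMSO.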

[2] = target: cathepsin L (Homo sapiens, UniProt P07711); test: Inhibitory activity assay against cathepsin L (enzyme assay); conditions: Z-Phe-Arg-AMC 2 μM, enzyme 3 nM, pH 5.5, 30 minutes
Chain of cathepsin L (P07711 114-333, species assumed): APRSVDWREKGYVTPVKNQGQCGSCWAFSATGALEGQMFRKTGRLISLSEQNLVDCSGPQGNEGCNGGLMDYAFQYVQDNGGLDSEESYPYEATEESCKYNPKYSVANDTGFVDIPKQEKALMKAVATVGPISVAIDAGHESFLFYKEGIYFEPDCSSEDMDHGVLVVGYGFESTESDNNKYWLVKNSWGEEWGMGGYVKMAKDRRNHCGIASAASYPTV
Method: In order to measure the enzyme activity of cathepsin L, a buffer solution (pH 5.5) consisting of 50 mM MES, 2.5 mM DTT, 2.5 mM EDTA, 0.005% Polysorbate 20, and 10% DMSO was prepared. The substrate, the test material, and the enzyme were mixed in the buffer solution in a predetermined concentration. The Z-Phe-Arg-AMC substrate was used in the final concentration of 2 μM. The test material was used in the final concentrations of 10.0 μM, 3.33 μM, 1.11 μM, 0.370 μM, 0.123 μM, 0.0412 μM, 0.0137 μM, 0.00457 μM, 0.00152 μM, and 0.000508 μM, respectively. The cathepsin L enzyme was used in the final concentration of 3 nM. The final volume of the enzyme reaction solution was 10 μL. After reacting the mixture of substrate, test material, and enzyme for 30 minutes, the enzyme activity was measured with the EnVision (Perkin Elmer) microplate reader at an absorption wavelength of 340 nm and an emission wavelength of 460 nm. IC50 values were determined using 4-parameter logistic curve fit program of GraphPad Prism.

[3] = target: cathepsin B (Homo sapiens, UniProt P07858); test: Inhibitory activity assay against cathepsin B (enzyme assay); conditions: Z-Arg-Arg-AMC 40 μM, enzyme 1 nM, pH 6.0, 90 minutes
Method: In order to measure the enzyme activity of cathepsin B, a buffer solution (pH 6.0) consisting of 50 mM MES, 5 mM DTT, 2.5 mM EDTA, 0.005% Polysorbate 20, and 10% DMSO was prepared. The substrate, the test material, and the enzyme were mixed in the buffer solution in a predetermined concentration. The Z-Arg-Arg-AMC substrate was used in the final concentration of 40 μM. The test material was used in the final concentrations of 10.0 μM, 3.33 μM, 1.11 μM, 0.370 μM, 0.123 μM, 0.0412 μM, 0.0137 μM, 0.00457 μM, 0.00152 μM, and 0.000508 μM, respectively. The cathepsin B enzyme was used in the final concentration of 1 nM. The final volume of the enzyme reaction solution was 10 μL. After reacting the mixture of substrate, test material, and enzyme for 90 minutes, the enzyme activity was measured with the EnVision (Perkin Elmer) microplate reader at an absorption wavelength of 340 nm and an emission wavelength of 460 nm. IC50 values were determined using 4-parameter logistic curve fit program of GraphPad Prism.

[4] = target: cathepsin S (Homo sapiens, UniProt P25774); test: Inhibitory activity assay against cathepsin S (enzyme assay); conditions: Z-Phe-Arg-AMC 70 μM, enzyme 3 nM, pH 6.5, 45 minutes
Chain of cathepsin S (P25774 115-331, species assumed): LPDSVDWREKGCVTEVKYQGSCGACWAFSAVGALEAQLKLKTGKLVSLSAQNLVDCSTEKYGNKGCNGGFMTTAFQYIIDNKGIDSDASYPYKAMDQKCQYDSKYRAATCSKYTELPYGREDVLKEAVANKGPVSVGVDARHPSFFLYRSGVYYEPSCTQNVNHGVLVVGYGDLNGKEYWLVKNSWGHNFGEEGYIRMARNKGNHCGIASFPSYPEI
Method: In order to measure the enzyme activity of cathepsin S, a buffer solution (pH 6.5) consisting of 50 mM MES, 2.5 mM DTT, 1.0 mM EDTA, 0.001% bovine serum albumin (BSA), and 10% DMSO was prepared. The substrate, the test material, and the enzyme were mixed in the buffer solution in a predetermined concentration. The Z-Phe-Arg-AMC substrate was used in the final concentration of 70 μM. The test material was used in the final concentrations of 10.0 μM, 3.33 μM, 1.11 μM, 0.370 μM, 0.123 μM, 0.0412 μM, 0.0137 μM, 0.00457 μM, 0.00152 μM, and 0.000508 μM, respectively. The cathepsin S enzyme was used in the final concentration of 3 nM. The final volume of the enzyme reaction solution was 10 μL.
After reacting the mixture of substrate, test material, and enzyme for 45 minutes, the enzyme activity was measured with the EnVision (Perkin Elmer) microplate reader at an absorption wavelength of 340 nm and an emission wavelength of 460 nm. IC50 values were determined using 4-parameter logistic curve fit program of GraphPad Prism.

Row | SMILES | IC50 [1] [nM] | IC50 [2] [nM] | IC50 [3] [nM] | IC50 [4] [nM]
1 | N#Cc1nccc(C2(NC(=O)Nc3cc(C(F)(F)F)ccc3C(=O)O)CCCCC2)n1 [Example 98, 2-(3-(1-(2-cyanopyrimidin-4-yl)cyclohexyl)ureido)-4-(trifluoromethyl)benzoic acid] | 61.7 | > 10000 | > 10000 | 4480
2 | COc1ccc(-c2ccc(NC(=O)NC3(c4ccnc(C#N)n4)CCCCC3)cc2)cn1 [Example 127, 1-(1-(2-cyanopyrimidin-4-yl)cyclohexyl)-3-(4-(6-methoxypyridin-3-yl)phenyl)urea] | 10.9 | > 10000 | > 10000 | > 10000
3 | N#Cc1nccc(C2(NC(=O)Nc3ccc(N4CCN(C5CC5)CC4)cc3)CCCCC2)n1 [Example 144, 1-(1-(2-cyanopyrimidin-4-yl)cyclohexyl)-3-(4-(4-cyclopropylpiperazin-1-yl)phenyl)urea] | 18.3 | > 10000 | > 10000 | > 10000
4 | N#Cc1nccc(C2(NC(=O)Nc3ccc(I)c(C(F)(F)F)c3)CCCCC2)n1 [Example 136, 1-(1-(2-cyanopyrimidin-4-yl)cyclohexyl)-3-(4-iodo-3-(trifluoromethyl)phenyl)urea] | 24.5 | > 10000 | > 10000 | > 10000
5 | N#Cc1nccc(C2(NC(=O)OCc3ccc(F)cc3)CCCCC2)n1 [Example 27, 4-fluorobenzyl (1-(2-cyanopyrimidin-4-yl)cyclohexyl)carbamate] | 22.4 | 895 | > 10000 | 7780
6 | N#Cc1nccc(C2(NC(=O)OCCc3ccccc3)CCCC2)n1 [Example 4, phenethyl (1-(2-cyanopyrimidin-4-yl)cyclopentyl)carbamate] | 1150 | > 10000 | > 10000 | > 10000
7 | N#Cc1nccc(C2(NC(=O)OCc3cccc(F)c3)CCCC2)n1 [Example 7, 3-fluorobenzyl (1-(2-cyanopyrimidin-4-yl)cyclopentyl)carbamate] | 56.3 | 3550 | > 10000 | > 10000
8 | N#Cc1nccc(C2(NC(=O)NCc3ccc(F)cc3)CCCC2)n1 [Example 54, 1-(1-(2-cyanopyrimidin-4-yl)cyclopentyl)-3-(4-fluorobenzyl)urea] | 76 | > 10000 | > 10000 | > 10000
9 | N#Cc1nccc(C2(NC(=O)OCc3cccc(Br)c3)CCCCC2)n1 [Example 12, 3-bromobenzyl (1-(2-cyanopyrimidin-4-yl)cyclohexyl)carbamate] | 168 | 6910 | > 10000 | > 10000
10 | N#Cc1nccc(C2(NC(=O)NCc3ccccc3C(F)(F)F)CCCCC2)n1 [Example 91, 1-(1-(2-cyanopyrimidin-4-yl)cyclohexyl)-3-(2-(trifluoromethyl)benzyl)urea] | 32.2 | 4770 | > 10000 | > 10000
11 | N#Cc1nccc(C2(NC(=O)OCc3ccc(Br)cc3)CCCC2)n1 [Example 2, 4-bromobenzyl (1-(2-cyanopyrimidin-4-yl)cyclopentyl)carbamate] | 21.8 | > 10000 | > 10000 | > 10000
12 | Cc1cccc(COC(=O)NC2(c3ccnc(C#N)n3)CCCCC2)c1 [Example 13, 3-methylbenzyl (1-(2-cyanopyrimidin-4-yl)cyclohexyl)carbamate] | 241 | 5080 | > 10000 | > 10000
13 | N#Cc1nccc(C2(NC(=O)Nc3ccc(C#CCCC(=O)O)cc3)CCCCC2)n1 [Example 182, 5-(4-(3-(1-(2-cyanopyrimidin-4-yl)cyclohexyl)ureido)phenyl)pent-4-ynoic acid] | 10.5 | > 10000 | > 10000 | > 10000

The next compounds have a lower IC50 [1] than those just listed; values first:

Row | IC50 [1] [nM] | IC50 [2] [nM] | IC50 [3] [nM] | IC50 [4] [nM] | SMILES
14 | 9.2 | > 10000 | > 10000 | > 10000 | N#Cc1nccc(C2(NC(=O)Nc3ccc(-c4ccc(O)cc4)cc3)CCCCC2)n1 [Example 115, 1-(1-(2-cyanopyrimidin-4-yl)cyclohexyl)-3-(4′-hydroxy-[1,1′-biphenyl]-4-yl)urea]
15 | 9 | 1130 | > 10000 | 8240 | Cc1ccc(F)c(NC(=O)NC2(c3ccnc(C#N)n3)CCCCC2)c1 [Example 94, 1-(1-(2-cyanopyrimidin-4-yl)cyclohexyl)-3-(2-fluoro-5-methylphenyl)urea]
16 | 6.8 | 1470 | > 10000 | 4750 | COCc1ccc(C(F)(F)F)cc1NC(=O)NC1(c2ccnc(C#N)n2)CCCCC1 [Example 107, 1-(1-(2-cyanopyrimidin-4-yl)cyclohexyl)-3-(2-(methoxymethyl)-5-(trifluoromethyl)phenyl)urea]
17 | 5.7 | > 10000 | > 10000 | > 10000 | CC(=O)NCc1ccc(-c2ccc(NC(=O)NC3(c4ccnc(C#N)n4)CCCCC3)cc2F)cc1 [Example 165, N-((4′-(3-(1-(2-cyanopyrimidin-4-yl)cyclohexyl)ureido)-2′-fluoro-[1,1′-biphenyl]-4-yl)methyl)acetamide]
18 | 4.9 | > 10000 | > 10000 | > 10000 | N#Cc1nccc(C2(NC(=O)Nc3cc(C(F)(F)F)ccc3F)CCCCC2)n1 [Example 97, 1-(1-(2-cyanopyrimidin-4-yl)cyclohexyl)-3-(2-fluoro-5-(trifluoromethyl)phenyl)urea]
19 | 4.5 | > 10000 | > 10000 | > 10000 | CN(C)C1CCN(c2ccc(NC(=O)NC3(c4ccnc(C#N)n4)CCCCC3)cc2)CC1 [Example 141, 1-(1-(2-cyanopyrimidin-4-yl)cyclohexyl)-3-(4-(4-(dimethylamino)piperidin-1-yl)phenyl)urea]
20 | 3.1 | > 10000 | > 10000 | > 10000 | N#Cc1nccc(C2(NC(=O)Nc3cc(C(F)(F)F)c(F)cc3F)CCCCC2)n1 [Example 106, 1-(1-(2-cyanopyrimidin-4-yl)cyclohexyl)-3-(2,4-difluoro-5-(trifluoromethyl)phenyl)urea]
21 | 0.1 | 2020 | 2740 | > 10000 | N#Cc1nccc(C2(NC(=O)Nc3ccc(-c4ccc(C(=O)NCCn5ccnc5)cc4)c(F)c3)CCCCC2)n1 [Example 186, N-(2-(1H-imidazol-1-yl)ethyl)-4′-(3-(1-(2-cyanopyrimidin-4-yl)cyclohexyl)ureido)-2′-fluoro-[1,1′-biphenyl]-4-carboxamide]
